This note sets out measurements from patent publication US5688807A, “Method for treating 5HT2B receptor related conditions” (Eli Lilly and Company, priority 1995, dated 1997).

Structures can show the parent of a compound that is named as a salt. Where two headings read alike, the source gives them in different places.

The target in assay [1] is 5-HT2B receptor (rat stomach fundus) (Rattus norvegicus, UniProt P30994).
Assay [2] addresses T1, 5-HT2A receptor (rat jugular vein) (Rattus norvegicus, UniProt P14842).
T1 construct: rat jugular vein which is mediated by 5-HT2A receptors; from tissue; host or cells: rat jugular vein
Kind of assay: Antagonism of serotonin response in rat jugular vein (apparent antagonist dissociation constant). To be noted: vs serotonin, ± standard error, read-out: 5-HT2A (Jugular) -log KB (converted). As for the experimental part:
Apparent antagonist dissociation constants (KB) were determined for each concentration of antagonist according to the following equation: […]
where [B] is the concentration of the antagonist and dose ratio is the ED50 of the agonist in the presence of the antagonist divided by the control ED50. Generally, parallel shifts in the concentration-response curves occurred in the presence of antagonists. The results were expressed as the negative logarithm of the KB (i.e., -log KB). Calculations were completed using known methods.
The values in Table II are expressed as -log KB ± standard error (number of data points). The 5-HT2B value represents the negative log of the concentration of an antagonist that will produce a two fold dextral shift in the concentration response curve to serotonin in the rat stomach fundus which is mediated by 5-HT2B receptors. Likewise, the 5-HT2A value represents the negative log of the concentration of an antagonist that will produce a two fold dextral shift in the concentration response curve to serotonin in the rat jugular vein which is mediated by 5-HT2A receptors. The blank values in Table II indicate that the compound was not tested in the indicated assay.

Another assay addresses rat 5-HT2B receptor (Rattus norvegicus, UniProt P30994). Kind of assay: biochemical. It is filed as binding.
In a further assay the target is Rat 5-HT2A (Rattus norvegicus, UniProt P14842). Kind of assay: [125I]DOI radioligand binding, rat 5-HT2A. To be noted: AVG.
Sequence of Rat 5-HT2A (P14842 whole entry): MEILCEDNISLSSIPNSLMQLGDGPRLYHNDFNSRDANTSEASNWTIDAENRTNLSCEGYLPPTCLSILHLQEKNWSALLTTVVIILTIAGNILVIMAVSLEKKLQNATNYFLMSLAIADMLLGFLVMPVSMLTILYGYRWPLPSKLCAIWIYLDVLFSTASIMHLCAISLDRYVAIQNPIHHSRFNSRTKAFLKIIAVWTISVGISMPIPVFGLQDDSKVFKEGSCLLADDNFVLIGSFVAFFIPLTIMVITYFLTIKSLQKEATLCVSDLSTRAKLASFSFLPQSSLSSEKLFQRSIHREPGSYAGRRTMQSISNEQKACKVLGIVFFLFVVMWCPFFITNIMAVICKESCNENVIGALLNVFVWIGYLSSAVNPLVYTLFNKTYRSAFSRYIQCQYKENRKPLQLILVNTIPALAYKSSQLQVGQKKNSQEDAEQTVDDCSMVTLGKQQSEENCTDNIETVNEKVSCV
For the next assay, the target named is Human 5-HT2A (Homo sapiens, UniProt P28223). Kind of assay: [125I]DOI radioligand binding, human 5-HT2A.
Sequence of Human 5-HT2A (P28223 whole entry): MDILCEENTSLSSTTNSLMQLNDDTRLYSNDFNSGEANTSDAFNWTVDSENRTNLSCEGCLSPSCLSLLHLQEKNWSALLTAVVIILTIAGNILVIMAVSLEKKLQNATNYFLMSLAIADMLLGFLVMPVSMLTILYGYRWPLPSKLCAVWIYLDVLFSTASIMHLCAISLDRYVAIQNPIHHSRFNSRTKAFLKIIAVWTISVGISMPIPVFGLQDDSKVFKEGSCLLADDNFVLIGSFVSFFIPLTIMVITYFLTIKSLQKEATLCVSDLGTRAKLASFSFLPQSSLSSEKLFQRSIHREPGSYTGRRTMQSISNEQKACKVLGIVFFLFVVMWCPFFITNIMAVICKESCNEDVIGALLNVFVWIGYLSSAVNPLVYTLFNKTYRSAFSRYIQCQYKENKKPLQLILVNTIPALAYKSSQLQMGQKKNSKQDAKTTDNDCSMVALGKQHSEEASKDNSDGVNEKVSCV
For the next assay, the system named is distal colon. Kind of assay: Functional in vitro assay: antagonism of serotonin contraction of rat distal colon longitudinal muscle. Particulars: vs serotonin. An excerpt: Functional In vitro Assay:
Sprague-Dawley rats (200-250g; Laboratory Supply, Indianapolis, Ind.) were sacrificed by cervical dislocation and 8 cm segment of distal colon was removed and washed in ice cold modified Kreb's solution of the following composition (millimolar): Nacl, 118.2; Kcl, 4.6; Cacl2. H2 O, 1.6; KH2 PO4, 1.2; MgSO4, 1.2; dextrose, 10.0; and NaHCO3, 24.8. The colon was mounted on a glass rod and the longitudinal muscle layer with attached myenteric plexi was removed and mounted in organ baths, containing above described Kreb's solution maintained at 37° C. and equilibrated with 95% O2 and 5% CO2. Tissues were placed under 2 g tension and allowed to stabilize for 1 hour. Isometric contractions were recorded as changes in grams of force using grass FT03 transducers and MI^2 - computerized dynograph system. Cumulative concentration-response curves for serotonin were obtained by a stepwise increase in concentration after washing out the preceding concentration for 10-15 minutes. Each agonist concentration remained in contact with the tissue for 5 minutes. Maximum response to each concentration was determined and digitized. EC50 values were taken as the concentration of agonist that produced half maximal contraction. After control responses were obtained, tissues were incubated with an appropriate concentration of antagonist for 15 minutes. Response to serotonin were then repeated in the presence of an antagonist. Concentration-response utilized only one concentration of antagonist per tissue. Apparent antagonist dissociation constants (KB) were determined for each concentration of antagonist according to the following equation:
KB =[B]/(dose ratio-1), where [B] is the concentration of the antagonist and dose ratio is the ED50 of the agonist in the presence of antagonist divided by the control ED50. The results were expressed as the negative logarithm of the KB (i.e., -log KB) (Br. J. Pharmacol. Methods 4:4165, (1980).
The functional in vitro method described supra. was used to test compounds of this invention. Values are expressed as pKi and pA2 (-log KB). The following table illustrates the results obtained when the compounds were tested using the Radioligand assay supra. (pKi) and the functional in vitro method described supra. (pA2)

In another assay the target is T2, Human 5-HT2B (Homo sapiens, UniProt P41595).
T2 construct: expressed in transfected cells
T2 sequence (P41595 whole entry): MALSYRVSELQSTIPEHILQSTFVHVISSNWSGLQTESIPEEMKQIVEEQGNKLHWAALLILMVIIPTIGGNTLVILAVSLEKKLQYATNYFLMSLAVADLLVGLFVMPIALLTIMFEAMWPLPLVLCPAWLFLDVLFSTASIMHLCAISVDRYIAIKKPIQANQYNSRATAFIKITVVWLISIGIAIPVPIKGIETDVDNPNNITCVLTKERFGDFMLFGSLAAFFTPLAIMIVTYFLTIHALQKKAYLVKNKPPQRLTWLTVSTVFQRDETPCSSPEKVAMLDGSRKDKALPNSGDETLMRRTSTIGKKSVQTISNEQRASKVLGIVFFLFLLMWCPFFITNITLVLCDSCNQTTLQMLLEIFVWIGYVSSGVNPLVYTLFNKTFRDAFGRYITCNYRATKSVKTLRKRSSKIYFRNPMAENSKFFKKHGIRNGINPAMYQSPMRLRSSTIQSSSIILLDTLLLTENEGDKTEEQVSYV
Kind of assay: [3H]Serotonin radioligand binding, human 5-HT2B.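 Also: competition of tritiated serotonin binding to cell membranes, bound radioactivity on filters counted by liquid scintillation, IC50 from logistic fits converted to Ki with the Cheng-Prusoff equation.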

[3] abbreviates: rat stomach fundus, vs serotonin, ± standard error, read-out: 5-HT2B (Fundus) -log KB (converted).
The mark [4] stands for this setting: Ki Rat 5-HT2B, [3H]Serotonin, 5-HT2B cells, AVG.
Setting [5] is: [125I]DOI, AVG, read-out: Ki Human 5-HT2A.
Setting [6] is: [3H]Serotonin, 5-HT2B cells, AVG, read-out: Ki Rat 5-HT2B.
[7] abbreviates: [3H]Serotonin, 5-HT2B cells, AVG, read-out: Ki Human 5-HT2B.
[8] abbreviates: Radioligand assay, Table III, read-out: pKi (converted).
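For 5-HT2B (Fundus) -log KB in this document: isometric contraction of isolated male Wistar rat stomach fundus strips, serotonin concentration-response curves after antagonist incubation, KB from dose ratio of agonist potency versus control curve.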
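For Ki Rat 5-HT2B in this document: displacement of [3H]5-HT from membranes of suspension cells carrying cloned rat 5-HT2B receptor, incubated 15 min at 37 °C or 2 h at 0 °C, filter-bound radioactivity counted by scintillation.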

T1 sequence (P14842 whole entry): as the sequence (P14842 whole entry) above
Sequence of rat 5-HT2B receptor (P30994 whole entry): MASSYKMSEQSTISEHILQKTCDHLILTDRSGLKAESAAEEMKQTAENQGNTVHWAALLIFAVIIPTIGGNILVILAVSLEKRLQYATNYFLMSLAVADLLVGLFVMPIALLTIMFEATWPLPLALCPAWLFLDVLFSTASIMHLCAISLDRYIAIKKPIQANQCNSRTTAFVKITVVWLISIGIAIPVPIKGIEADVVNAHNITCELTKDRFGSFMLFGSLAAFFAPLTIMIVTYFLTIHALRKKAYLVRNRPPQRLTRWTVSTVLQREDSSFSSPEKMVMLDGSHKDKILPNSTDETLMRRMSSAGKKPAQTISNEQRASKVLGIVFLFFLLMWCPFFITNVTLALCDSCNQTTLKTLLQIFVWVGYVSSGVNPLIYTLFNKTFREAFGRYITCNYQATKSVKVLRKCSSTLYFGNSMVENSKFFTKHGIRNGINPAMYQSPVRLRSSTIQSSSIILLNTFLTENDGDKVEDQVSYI
Sequence of 5-HT2B receptor (rat stomach fundus) (P30994 whole entry): as above

`CCCOc1ccc(CC2NCCc3c2[nH]c2ccc(C)cc32)cc1OC` (stereo not shown) [Example 31, 6-methyl-1-[(3-methoxy-4-propoxyphenyl)-methyl]-1,2,3,4-tetrahydro-9H-pyrido[3,4-b]indole]: the Kb in assay [1] (setting [3]) was 1.12 nM; in assay [2], 51.3 nM.
Regarding `CC(C)n1cc2c3c(cccc31)C1CC(C(=O)NC3CCCCC3)CN(C)C1C2` (stereo not shown), the Ki is 15.1 nM at rat 5-HT2B receptor (setting [4]) and 2.05 nM on Rat 5-HT2A.
On to `CC(C)n1cc2c3c(cccc31)C1CC(C(=O)NC3CCCCC3O)CN(C)C1C2` (stereo not shown) [drawing 87], for which the results for the Ki on rat 5-HT2B receptor (setting [4]), on Human 5-HT2A (setting [5]) and at Rat 5-HT2A were 9.35 nM, 18.6 nM and 2.44 nM, respectively.
For `COc1ccc(CC2NCCc3c2[nH]c2ccc(C)cc32)c(Cl)c1OC` (stereo not shown) [Example 36, 6-methyl-1-[(2-chloro-3,4-dimethoxyphenyl)-methyl]-1,2,3,4-tetrahydro-9H-pyrido[3,4-b]indole hydrochloride], the Kb in assay [1] (read-out: 5-HT2B (Fundus) -log KB (converted)) is 0.158 nM; in assay [2] it was 7.24 nM.
Regarding `CCc1ccc2[nH]c3c(c2c1)CCNC3Cc1ccc(OC)c(OC)c1` (stereo not shown) [Example 17, 6-ethyl-1,2,3,4-tetrahydro-1-[(3,4-dimethoxyphenyl)methyl]-9H-pyrido[3,4b]indole], the figures for the Kb in assay [1] (setting [3]) and in assay [2] were 0.347 nM and 21.9 nM, respectively. Also, the “pA2 (-log KB)” value with distal colon is listed as 6.2.
For the molecule `CC(C)n1cc2c3c(cccc31)C1CC(C(=O)NC3CCCCC3O)CN(C)C1C2` (stereo not shown) [drawing 84], the results for the Ki on rat 5-HT2B receptor (setting [4]), at Human 5-HT2A (setting [5]) and at Rat 5-HT2A were 10.2 nM, 74.5 nM and 8.91 nM, respectively.
`Cc1ccc2c3c([nH]c2c1Cl)CNCC3` [drawing 177]: the Ki at rat 5-HT2B receptor (setting [6]) came out at 2.69 nM; at Human 5-HT2B (setting [7]), 2.68 nM; at Human 5-HT2A, 20.6 nM; on Rat 5-HT2A, 15.5 nM.
`CCCN(CCC)C1CCc2cccc(-c3ccno3)c2C1` (single isomer, unassigned): the Ki turned out to be 79.3 nM on rat 5-HT2B receptor (read-out: Ki Rat 5-HT2B, [3H]Serotonin, 5-HT2B cells, AVG); 215 nM on Human 5-HT2B (setting [7]); 6160 nM at Human 5-HT2A (read-out: Ki Human 5-HT2A, [125I]DOI, AVG).
For `Brc1cccc2c3c([nH]c12)CNCC3`, the Ki turned out to be 22.7 nM on Human 5-HT2A and 25.6 nM at Rat 5-HT2A.
As for `CC(C)n1cc2c3c(cccc31)C1CC(C(=O)N[C@H]3CC[C@H](O)CC3)CN(C)C1C2` (stereo partly shown), the Ki is 30.9 nM on rat 5-HT2B receptor (setting [4]), 6.24 nM at Human 5-HT2B, 21.2 nM at Human 5-HT2A (setting [5]) and 2.82 nM at Rat 5-HT2A.
Regarding `Cc1cc(Br)c2[nH]c3c(c2c1)CCNC3` [drawing 168], the Ki on Human 5-HT2A was 41.7 nM; at Rat 5-HT2A, 47 nM.
As for `Brc1ccc2[nH]c3c(c2c1)CCNC3` [6-bromo-1,2,3,4-tetrahydro-9H-pyrido[3,4b]-indole], the “pA2 (-log KB)” value in the assay on distal colon came out at 8.2.
With `Cc1ccc2c3c([nH]c2c1Cl)CNCC3` [Example 76, 7-methyl-8-chloro-1,2,3,4-tetrahydro-9H-pyrido[3,4b]-indole], in the assay on distal colon, the “pA2 (-log KB)” value is reported as 8.3.
For `Cc1ccc2c3c([nH]c2c1I)CNCC3`, the results for the Ki at rat 5-HT2B receptor (setting [6]), on Human 5-HT2B (setting [7]) and on Human 5-HT2A were 15.3 nM, 10.2 nM and 17.8 nM, respectively.
For the molecule `Cc1ccc2c(CCN)c[nH]c2c1Cl`, the Ki on rat 5-HT2B receptor (setting [4]) was 7.94 nM; on Human 5-HT2B it was 11.2 nM; on Human 5-HT2A (setting [5]), 27.6 nM; on Rat 5-HT2A, 20.7 nM.
`CCc1ccc2[nH]c3c(c2c1)CCNC3Cc1ccc(OC)c(OC)c1` (stereo not shown) [drawing 143]: the Ki at rat 5-HT2B receptor (setting [6]) was 8.16 nM; on Human 5-HT2B (setting [7]), 1.5 nM; at Human 5-HT2A it was 23.4 nM.
`Cc1ccc2[nH]c3c(c2c1)CCNC3Cc1ccc(N(C)C)c2ccccc12` (stereo not shown): the values for the Ki at rat 5-HT2B receptor (setting [6]), on Human 5-HT2B (setting [7]) and at Human 5-HT2A were 5.02 nM, 1.64 nM and 0.83 nM, respectively.
With `Cc1ccc2c(CCN)c[nH]c2c1Br`, the Ki at rat 5-HT2B receptor (setting [4]) stood at 11.3 nM; on Human 5-HT2A (setting [5]), 33.7 nM; on Rat 5-HT2A, 14.2 nM.
In the case of `CN1CC(C(=O)NC2CCCCC2)CC2c3cccc4[nH]cc(c34)CC21` (stereo not shown), the Ki on rat 5-HT2B receptor (setting [4]) was found to be 19 nM; on Rat 5-HT2A it was 5.12 nM.
Regarding `Cc1ccc2c3c([nH]c2c1C)CNCC3` [Example 72, 7,8-dimethyl-1,2,3,4-tetrahydro-9H-pyrido[3,4b]-indole], on rat 5-HT2B receptor (Radioligand assay, Table III), the negative logarithm of the Ki (pKi) (usually −log10 of the Ki, conventionally taken in molar units) is on record as 7.8. Besides, in the assay with distal colon, the “pA2 (-log KB)” value came to 7.5.
For the molecule `CC(C)n1cc2c3c(cccc31)C1CC(C(=O)NC3CCCCC3O)CN(C)C1C2` (stereo not shown) [drawing 85], the Ki came out at 11.4 nM at rat 5-HT2B receptor (setting [4]), 108 nM on Human 5-HT2A (setting [5]) and 12.4 nM on Rat 5-HT2A.
On to `COc1ccc(CC2NCCc3c2[nH]c2cc(C)c(C)cc32)cc1OC` (stereo not shown) [Example 16, 6,7-dimethyl-1,2,3,4-tetrahydro-1-[(3,4-dimethoxyphenyl)methyl]-9H-pyrido[3,4b]indole], for which the Kb was 0.195 nM in assay [1] and 7.08 nM in assay [2].
With `CN1CC(C(=O)N[C@H]2CC[C@H](O)CC2)CC2c3cccc4[nH]cc(c34)CC21` (stereo partly shown), the Ki on rat 5-HT2B receptor (setting [4]) worked out at 44.6 nM; on Human 5-HT2B, 12.4 nM; at Human 5-HT2A (setting [5]), 1.25 nM; on Rat 5-HT2A, 5.36 nM.
With `Clc1ccc2[nH]c3c(c2c1)CCNC3` [6-chloro-1,2,3,4-tetrahydro-9H-pyrido[3,4b]-indole], the “pA2 (-log KB)” value in the assay on distal colon is recorded as 7.2.
Take `Cc1ccc2[nH]c3c(c2c1)CCNC3Cc1cccc2ccccc12` (stereo not shown): the Ki at rat 5-HT2B receptor (setting [6]) is 3.31 nM; at Human 5-HT2B (setting [7]), 0.74 nM; on Human 5-HT2A, 4.63 nM.
In the case of `CC(C)n1cc2c3c(cccc31)C1CC(C(=O)NC3CCCCC3O)CN(C)C1C2` (stereo not shown) [drawing 86], the Ki turned out to be 8.61 nM on rat 5-HT2B receptor (setting [4]), 15.8 nM on Human 5-HT2A (setting [5]) and 2.39 nM on Rat 5-HT2A.
In the case of `COc1ccc(C(C)C2NCCc3c2[nH]c2cc(C)c(C)cc32)cc1OC` (racemic) [Example 41, (±) 6,7-dimethyl-1-[(3,4-dimethoxyphenyl)-1-ethyl]-1,2,3,4-tetrahydro-9H-pyrido[3,4-b]indole (Z)-2-butenedioate], the Ki at rat 5-HT2B receptor (setting [8]) was 6.46 nM. The Kb is 0.155 nM in assay [1] (setting [3]) and 11.5 nM in assay [2]. Also, in the assay with distal colon, the “pA2 (-log KB)” value came out at 7.2.
Take `Cc1ccc2[nH]c3c(c2c1)CCNC3Cc1cccc2ccccc12` (racemic) [Example 51, (±) 6-methyl-1-(1-naphthalenylmethyl)-1,2,3,4-tetrahydro-9H-pyrido [3,4-b]indole hydrochloride]: the Kb in assay [1] (setting [3]) is 0.178 nM; in assay [2] it was 8.51 nM.
`COc1ccc(CC2NCCc3c2[nH]c2ccc(C)cc32)c(OC)c1OC.Cl` (stereo not shown) [Example 22, 6-methyl-1-[(2,3,4-trimethoxyphenyl)-methyl]-1,2,3,4-tetrahydro-9H-pyrido[3,4-b]indole hydrochloride]: the Ki at rat 5-HT2B receptor (setting [8]) is 5.37 nM. Also, the Kb in assay [1] (setting [3]) is 6.17 nM. For the same molecule, the “pA2 (-log KB)” value in the assay with distal colon was determined as 4.8.
On to `Cc1ccc2c3c([nH]c2c1Br)CNCC3`, for which the Ki on Human 5-HT2A was 21.7 nM; on Rat 5-HT2A it was 15.7 nM.
`COc1ccc(CC2NCCc3c2[nH]c2ccc(C)cc32)cc1OC` (stereo not shown) [Example 20, 6-methyl-1,2,3,4-tetrahydro-1-[(3,4-dimethoxyphenyl)methyl]-9H-pyrido[3,4b]indole hydrochloride]: the Kb in assay [2] was 61.7 nM. The “pA2 (-log KB)” value in the assay with distal colon amounted to 7.8.
On to `CC(C)n1cc2c3c(cccc31)C1CC(C(=O)N[C@H]3CC[C@@H](O)CC3)CN(C)C1C2` (stereo partly shown), for which the Ki at rat 5-HT2B receptor (setting [4]) is 22.3 nM; on Human 5-HT2B, 4.3 nM; at Human 5-HT2A (setting [5]), 11.3 nM; on Rat 5-HT2A, 1.57 nM.
